Test results published in US20170135948A1, “COMPOSITION COMPRISING EXTRACT OF AUTUMN SOYBEAN LEAVES” (AMOREPACIFIC CORPORATION, priority 2014, published 2017).

Assays:
collagenase = assay: Collagenase production inhibition test in human fibroblasts; format: cell-based; conditions: 10^−4 M tocopherol or EGCG, 24 hours, untreated group = 100
Method: The activity of inhibiting collagenase production of the soybean leaf extracts of stages VC, V2, V4, R2, R4, R6 and R7 prepared in Example 1 was compared with those of tocopherol (Comparative Example 1) and EGCG (Comparative Example 2). Tocopherol and EGCG are known to prevent skin aging by regenerating epidermal cells.
Human fibroblasts (Cascade Biologics, Portland, Oreg., USA) were added to a 96-well microtiter plate containing Dulbecco's modified Eagle's medium (DMEM) supplemented with 2.5 wt % fetal bovine serum, at 5,000 cells/well, and cultured to about 90% confluence. Then, after culturing in serum-free DMEM for 24 hours and treating with 100 μg/mL of each of the soybean leaf extracts of stages VC, V2, V4, R2, R4, R6 and R7 prepared in Example 1 or 10^−4 M tocopherol or EGCG (Sigma Aldrich) for 24 hours, the cell culture was harvested.
The production of collagenase in the cell culture harvested was measured using a collagenase measuring system (Amersham Pharmacia, USA). […]
A absorbance of a cell culture obtained without treating with the composition was used as a control group. That is to say, the expression level of collagenase in the group treated with the test substance was calculated relative to that of the untreated group as 100.
Collagenase expression level (%)=Absorbance of group treated with test substance/Absorbance of control group×100 [Equation 1]

[1] = Irritation test (pricking, flushing) on the face of 15 panels sensitive to irritation; format: in vivo
Method: Retinol as a known antiaging substance and the autumn soybean leaf (stage R7) extract as an active ingredient of the present disclosure were tested comparatively for irritation by 15 panels who are sensitive to irritation such as pricking, flushing, etc.
The panels were asked to apply 0.5 mL of retinol (purchased from Sigma) or the autumn soybean leaf extract obtained in Example 1 (1 mg/mL) randomly on each face and score between 0 and 3.0 points with 0.1-point intervals.
1.1-2.0: Moderate irritation.
2.1-3.0: Severe irritation.

[2] = Antioxidative activity test based on DPPH reduction; format: biochemical; conditions: sample concentration at which absorbance at 540 nm decreased by 50%; 100 μM DPPH, 37° C., 30 minutes
Method: In order to investigate the antioxidative activity of the soybean leaf extracts of stages VC, V2, V4, R2, R4, R6 and R7 prepared in Example 1, the effect of inhibiting the oxidation of the free radical 1,1-diphenyl-2-picrylhydrazyl (DPPH) was compared by measuring the change in absorbance caused by reduction of DPPH.
190 μL of a 100 μM (in ethanol) DPPH solution and each of the soybean leaf extracts of stages VC, V2, V4, R2, R4, R6 and R7 obtained in Example 1 and 10,000 ppm Trolox (positive control), a synthetic antioxidant are prepared at a concentration of 10,000 ppm, diluted to a final concentration of 500 ppm, 250 ppm, 125 ppm, 62.5 ppm, 31.25 ppm or 15.63 ppm. 10 μL of each of them were mixed to prepare a reaction solution, and absorbance was measured at 540 nm after incubation at 37° C. for 30 minutes. IC50 means the sample concentration when the absorbance was decreased by 50% due to the added sample.

[3] = score 0 to 3.0 points, 0.5 mL applied on face, extract 1 mg/mL, 15 panels

Compound: O=C(O[C@@H]1Cc2c(O)cc(O)cc2O[C@@H]1c1cc(O)c(O)c(O)c1)c1cc(O)c(O)c(O)c1 [EGCG (Comparative Example 2), EGCG]
- Collagenase expression level (%) (collagenase): 61%

Compound: CC1=C(/C=C/C(C)=C/C=C/C(C)=C/CO)C(C)(C)CCC1 [Retinol]
- Irritation such as pricking and flushing (in words) ([1]; grade by the scoring standard, 0.5 mL applied on face): slight irritation
- Mean (irritation score) ([1]; mean of pricking and flushing scores, 0 to 3.0 points): 0.65
- Flushing (irritation score) [1, 3]: 0.42
- Pricking (irritation score) [1, 3]: 0.87

Compound: Cc1c(C)c2c(c(C)c1O)CCC(C)(C(=O)O)O2 (stereo not shown) [Trolox (positive control), Trolox]
- IC50 (ppm) [2]: 38 ppm

Compound: Cc1c(C)c2c(c(C)c1O)CC[C@@](C)(CCC[C@H](C)CCC[C@H](C)CCCC(C)C)O2 [Tocopherol (Comparative Example 1), tocopherol]
- Collagenase expression level (%) (collagenase): 74%
